From patent US10774051B2, “6-membered heterocyclic derivatives and pharmaceutical composition comprising the same” (Shionogi & Co., Ltd., priority 2015, dated 2020)

biological target: human P2X7 receptor (Homo sapiens, UniProt Q99572, R270H/Y155H); experiment: Evaluation of human P2X7 receptor inhibitory activity (Yo-Pro uptake, BzATP stimulation, FLIPR TETRA); format: cell-based; conditions: 1321N1 cells stably expressing human P2X7 receptor; BzATP stimulation, Yo-Pro uptake; read-out: IC50 (antagonistic activity for the human P2X7 receptor)
Summary of the method: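 1321N1 cells stably expressing human P2X7 (T606C/G952A SNP variant), in HBSS buffer pH 7.4-7.5 with Yo-Pro, stimulated with BzATP; compound added 8 min after agonist. Fluorescence followed for 20 min on FLIPR; max-minus-min change gave % inhibition, IC50 by logistic fit.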

Row | Compound | IC50 [nM]
1 | CCc1cc2c(cc1Nc1nc(=O)c(OC)cn1Cc1ccc(Cl)cc1)CCC2 [Compound I-0195] | 26
2 | COc1ccccc1Nc1nc(=O)c(OC)cn1Cc1ccc(F)c(F)c1 [Compound I-0675] | 190
3 | COc1cc(C)c(Nc2cc(=O)c(OC)cn2Cc2ccccc2)cc1C [Compound I-0945] | 170
4 | COC(=O)Nc1cn(Cc2ccccc2)c(Nc2cccc(Cl)c2C)nc1=O [Compound I-0020] | 17
5 | Cc1c(Cl)cccc1Nc1cc(=O)n(C)c(=O)n1Cc1ccccc1 [Compound I-0990] | 320
6 | COc1cn(Cc2ccc(F)c(Cl)c2)c(Nc2cc(S(C)(=O)=O)cc(C)c2C)nc1=O [Compound I-0755] | 12
7 | Cc1c(Cl)cccc1Nc1nc(=O)ccn1CCc1ccccc1 [Compound I-0055] | 26
8 | COc1cccc(Cn2cc(OC)c(=O)nc2Nc2cccc(Cl)c2C)c1 [Compound I-0052] | 130
9 | COc1cn(Cc2cc(F)cc(F)c2)c(Nc2ccc3ncsc3c2C)nc1=O [Compound I-0857] | 26
10 | Cc1c(Cl)cccc1Nc1nc(=O)c(O)cn1Cc1ccccc1 [Compound I-0203] | 18
11 | COc1cn(CCc2ccccc2)c(Nc2cccc(Cl)c2C)nc1=O [Compound I-0008] | 37
12 | COc1cn(Cc2ccsc2)c(Nc2cc(C)c(C)cc2C)nc1=O [Compound I-0738] | 3

same assay, conditions: 1321N1 cells stably expressing human P2X7 receptor; BzATP stimulation, Yo-Pro uptake; read-out: IC50 (antagonistic activity for the human P2X7 receptor), class symbol

Row | Compound | IC50 [nM]
13 | Cc1ccc(N2CCCS2(=O)=O)cc1Nc1nc(=O)c(F)cn1Cc1ccccc1 [Compound I-0148] | 10 to 100
14 | COc1cn(Cc2ccc(F)c(F)c2)c(Nc2cccc(C)c2C)nc1=O [Compound I-0324] | < 10
15 | Cc1cccc(Nc2nc(=O)c(F)cn2Cc2cccc(Cl)c2)c1C [Compound I-0224] | < 10
16 | Cc1cccc(C)c1Nc1nc(=O)c(F)cn1Cc1ccccc1 [Compound I-0153] | 10 to 100
17 | COc1cn(Cc2ccccc2)c(Nc2cc(OCC(F)(F)F)ccc2C)nc1=O [Compound I-0493] | 10 to 100
18 | CCc1ccccc1Nc1nc(=O)c(OC)cn1Cc1ccc(F)cc1 [Compound I-0200] | 10 to 100
19 | COc1cn(Cc2ccccc2COC(F)F)c(Nc2cccc(Cl)c2C)nc1=O [Compound I-0422] | 500 to 1000
20 | COc1cn(Cc2cc(C)cc(F)c2)c(Nc2cccc(Cl)c2C)nc1=O [Compound I-0450] | 10 to 100
21 | COc1cc(C)c(Nc2nc(=O)c(OC)cn2Cc2cccc(Cl)c2)cc1C [Compound I-0250] | < 10
22 | COc1cn(Cc2ccc(F)c(F)c2)c(Nc2cc(C)ccc2C)nc1=O [Compound I-0434] | < 10
23 | COc1cn(Cc2cc(F)cc(Cl)c2)c(Nc2cc(C)c(OC(F)F)cc2C)nc1=O [Compound I-0529] | 10 to 100
24 | COc1cn(Cc2ccccc2)c(Nc2cccc(OC(F)F)c2Cl)nc1=O [Compound I-0133] | 100 to 500
25 | COc1cn(Cc2ccccc2)c(NC2CCc3ccccc32)nc1=O (centres unmarked) [Compound I-0073] | 500 to 1000
26 | Cc1c(Cl)cccc1Nc1nc(=O)c(CC(N)=O)cn1Cc1ccccc1 [Compound I-0026] | 10 to 100
27 | COc1cn(Cc2ccc(F)c(Cl)c2)c(Nc2ccc(OC(C)C)cc2C)nc1=O [Compound I-0532] | 10 to 100
28 | CCc1ccc(OC)cc1Nc1nc(=O)c(OC)cn1Cc1ccc(F)c(Cl)c1 [Compound I-0246] | < 10
29 | COc1cn(Cc2cc(F)cc(F)c2)c(Nc2cc3c(cc2C)COC3)nc1=O [Compound I-0003] | < 10
30 | COc1cn(Cc2ccc(Cl)cc2)c(Nc2cccc(Cl)c2C)nc1=O [Compound I-0127] | 10 to 100
31 | COc1cn(Cc2cc(F)cc(F)c2)c(Nc2cccc(C)c2C)nc1=O [Compound I-0326] | < 10
32 | COc1cc(Nc2nc(=O)c(OC)cn2Cc2ccc(F)c(Cl)c2)c(C)cc1Cl [Compound I-0536] | < 10
33 | CCc1ccc(Cl)cc1Nc1nc(=O)c(OC)cn1Cc1ccc(F)cc1 [Compound I-0388] | 10 to 100
34 | COc1cn(Cc2ccc(F)c(Cl)c2)c(Nc2cc(C)cc3[nH]ccc23)nc1=O [Compound I-0396] | < 10
35 | Cc1cc(C)c(Nc2nc(=O)c(C(=O)NC3CCOCC3)cn2Cc2ccccc2)cc1C [Compound I-0219] | 10 to 100
36 | COc1cn(Cc2ccccc2)c(Nc2ccc3[nH]ccc3c2C)nc1=O [Compound I-0583] | < 10
37 | COc1cn(CCCc2ccccc2)c(Nc2cccc(Cl)c2C)nc1=O [Compound I-0099] | 100 to 500
38 | COc1cn(Cc2ccccc2)c(Nc2cccc(C(F)(F)F)c2C)nc1=O [Compound I-0085] | 10 to 100
39 | COc1cn(Cc2cc(F)cc(Cl)c2)c(Nc2cc(C)c(F)cc2C)nc1=O [Compound I-0508] | 10 to 100
40 | CCc1ccccc1Nc1nc(=O)c(OC)cn1Cc1ccc(F)c(Cl)c1 [Compound I-0252] | < 10
41 | COc1cn(Cc2cccc(F)c2)c(Nc2cc(C)c(OC(F)F)cc2C)nc1=O [Compound I-0300] | < 10
42 | CCOc1ccc(C)c(Nc2nc(=O)c(OC)cn2Cc2cccc(Cl)c2)c1 [Compound I-0456] | 10 to 100

same assay, conditions: antagonistic activity for the human P2X7 receptor; read-out: IC50

Row | Compound | IC50 [nM]
43 | Cc1cc2c(cc1Nc1nc(=O)cnn1Cc1cc(F)c(F)c(F)c1)COC2 [Compound I-1280] | < 10
44 | Cc1c(Nc2nc(=O)c(F)cn2Cc2cc(F)c(F)c(F)c2)ccc2scnc12 [Compound I-1203] | < 10
45 | CCOc1cc(Nc2nc(=O)c(OC)cn2Cc2cc(F)cc(F)c2)c(C)cc1C [Compound I-0794] | < 10
46 | Cc1nc2cc(Cl)c(Nc3nc(=O)c(F)cn3Cc3ccc(F)c(F)c3)cc2o1 [Compound I-1076] | < 10
47 | COc1cn(Cc2ccccc2)c(Nc2cc3c(cc2C)OCO3)nc1=O [Compound I-0720] | 10 to 100
48 | COc1cn(Cc2cc(F)cc(Cl)c2)c(Nc2cc(-c3cccnc3)ccc2C)nc1=O [Compound I-0765] | 10 to 100
49 | COc1cc(C)c(Nc2nc(=O)c(OC)cn2Cc2cc(F)c(F)c(F)c2)cc1C [Compound I-0632] | < 10
50 | COc1cn(Cc2cc(F)c(F)c(F)c2)c(Nc2cc(C)c(OC(F)F)cc2C)nc1=O [Compound I-0607] | < 10
51 | COc1cn(Cc2ccc(F)cc2)c(Nc2cccc(OC(F)F)c2C)nc1=O [Compound I-0660] | 10 to 100
52 | COCc1cn(Cc2cc(F)c(F)c(F)c2)c(Nc2cc(OC)c(OC)cc2C)nc1=O [Compound I-1144] | 10 to 100
53 | COc1nc(C)c(Nc2nc(=O)c(F)cn2Cc2ccc(F)c(F)c2)cc1C [Compound I-1008] | < 10
54 | Cc1cc(Nc2nc(=O)c(F)cn2Cc2cc(F)c(F)c(F)c2)c(C)cc1Cl [Compound I-1207] | < 10
55 | COc1ccc(C)c(Nc2nc(=O)c(C#N)cn2Cc2cc(F)cc(F)c2)c1 [Compound I-1123] | 100 to 500
56 | Cc1cc(F)c(-c2cccn(C)c2=O)cc1Nc1nc(=O)ccn1Cc1cc(F)c(F)c(F)c1 [Compound I-1137] | 10 to 100
57 | CCOc1cc(Nc2nc(=O)c(OC)cn2Cc2cc(F)c(F)c(F)c2)c(C)cc1C [Compound I-0777] | < 10
58 | COc1cn(Cc2ccc(F)c(Cl)c2)c(Nc2cc(C)c(OC(F)F)cc2C)cc1=O [Compound I-0948] | 10 to 100
59 | COCc1cccc(Nc2nc(=O)c(F)cn2Cc2cc(F)c(F)c(F)c2)c1C [Compound I-1178] | < 10
60 | COc1cn(Cc2cc(F)cc(Cl)c2)c(Nc2cc(-c3ncco3)ccc2C)nc1=O [Compound I-0668] | 10 to 100
61 | Cc1c(Nc2nc(=O)c(F)cn2Cc2cc(F)c(F)c(F)c2)ccc2[nH]ccc12 [Compound I-1120] | < 10

Row | Compound | IC50 [nM]
62 | CN=c1nc(Nc2cc(C)ccc2C)n(Cc2cc(F)c(F)c(F)c2)cc1F [Compound I-1289] | 100 to 500
63 | COc1cc(F)c(Nc2nc(=O)c(C)cn2Cc2cc(F)c(F)c(F)c2)cc1OC [Compound I-1133] | 10 to 100
64 | COc1cn(Cc2cc(F)c(F)c(F)c2)c(Nc2cc(OC(C)C)ccc2C)nc1=O [Compound I-0633] | < 10
65 | Cc1ccc(CO)cc1Nc1nc(=O)c(F)cn1Cc1cc(F)c(F)c(F)c1 [Compound I-1015] | < 10
66 | Cc1cc(OC(F)F)c(C)cc1Nc1nc(=O)c(Cl)cn1Cc1ccc(F)c(F)c1 [Compound I-0838] | < 10
67 | CCc1cc(F)c(OC)cc1Nc1nc(=O)c(OC)cn1Cc1ccc(F)c(Cl)c1 [Compound I-0814] | < 10
68 | COc1ccc(Nc2nc(=O)cnn2Cc2ccc(F)cc2)c(C)c1 [Compound I-1273] | < 10
69 | COc1cn(Cc2cc(F)c(F)c(F)c2)c(Nc2ccc3c(c2C)COC3)nc1=O [Compound I-0911] | 10 to 100
70 | COc1cn(Cc2ccc(F)c(C(F)(F)F)c2)c(Nc2cccc(Cl)c2C)nc1=O [Compound I-0635] | 10 to 100
71 | CCOc1ccc(C)c(Nc2nc(=O)c(F)cn2Cc2ccc(F)c(Cl)c2)c1 [Compound I-0998] | < 10
72 | COc1ncccc1-c1ccc(C)c(Nc2nc(=O)c(OC)cn2Cc2cc(F)c(F)c(F)c2)c1 [Compound I-0832] | < 10
73 | CCc1cc2c(cc1Nc1nc(=O)c(OC)cn1Cc1cc(F)cc(F)c1)OCO2 [Compound I-0743] | 10 to 100
74 | COc1cc(Nc2nc(=O)c(F)cn2Cc2ccc(F)c(F)c2)c(C)cc1Cl [Compound I-0993] | < 10
75 | COc1cn(Cc2ccccc2)c(Nc2cccc(C)c2F)nc1=O [Compound I-0762] | 100 to 500
76 | CCOc1ccc(C)c(Nc2nc(=O)c(F)cn2Cc2cc(F)c(F)c(F)c2)c1 [Compound I-1007] | < 10
77 | COc1cn(Cc2cc(F)cc(F)c2)c(Nc2cc(Oc3ccccn3)ccc2C)nc1=O [Compound I-0897] | < 10
78 | COc1cn(Cc2ccccc2)c(Nc2ccc(OC(F)(F)F)cc2C)nc1=O [Compound I-0628] | 100 to 500
79 | Cc1cc(OC(F)F)c(C)cc1Nc1nc(=O)c(F)cn1Cc1ccc(F)c(Cl)c1 [Compound I-0834] | < 10
80 | Cc1nc2cc(C)c(Nc3nc(=O)c(F)cn3Cc3ccc(F)cc3)cc2s1 [Compound I-1011] | < 10
